According to US6936609B2, “Imidazotriazines for use as phosphodiesterase inhibitors” (Bayer HealthCare AG, priority 2001, dated 2005):

Experiments:
[1] = molecular target: T1, PDE 10A (Homo sapiens, UniProt Q9Y233); experiment: Inhibition of PDE 10A (in vitro enzyme inhibition test); assay type: biochemical; conditions: recombinant full-length PDE10A expressed in Sf9 insect cells; substrate [5',8-3H] adenosine 3',5'-cyclic phosphate; 60 min at room temperature; scintillation proximity beads
T1 construct: is expressed recombinantly in full length in Sf9 insect cells; made in house; host or cells: Sf9 insect cells (Bac-to-Bac baculovirus system); lysate supernatant used as the enzyme preparation
T1 sequence (Q9Y233 1-779 isoform Q9Y233-1): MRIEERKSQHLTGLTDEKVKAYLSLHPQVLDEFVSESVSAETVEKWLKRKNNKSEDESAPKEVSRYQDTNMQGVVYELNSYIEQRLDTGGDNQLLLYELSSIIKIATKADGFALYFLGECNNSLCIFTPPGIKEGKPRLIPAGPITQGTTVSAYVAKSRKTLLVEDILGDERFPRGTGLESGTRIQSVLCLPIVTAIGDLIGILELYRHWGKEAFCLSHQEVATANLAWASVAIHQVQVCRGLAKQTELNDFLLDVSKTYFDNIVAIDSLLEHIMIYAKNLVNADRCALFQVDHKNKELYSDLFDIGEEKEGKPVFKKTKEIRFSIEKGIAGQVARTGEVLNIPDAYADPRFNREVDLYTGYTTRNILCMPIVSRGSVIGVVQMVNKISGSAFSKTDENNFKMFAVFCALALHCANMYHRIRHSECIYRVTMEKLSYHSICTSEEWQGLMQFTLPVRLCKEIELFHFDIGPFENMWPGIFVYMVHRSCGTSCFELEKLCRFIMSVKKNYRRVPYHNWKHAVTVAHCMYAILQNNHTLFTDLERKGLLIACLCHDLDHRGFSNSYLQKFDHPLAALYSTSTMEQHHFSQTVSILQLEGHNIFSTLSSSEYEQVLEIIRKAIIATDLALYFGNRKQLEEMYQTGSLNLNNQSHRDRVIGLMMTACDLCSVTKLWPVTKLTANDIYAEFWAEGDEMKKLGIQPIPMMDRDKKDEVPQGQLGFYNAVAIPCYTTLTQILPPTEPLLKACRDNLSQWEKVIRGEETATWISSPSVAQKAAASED
Protocol: PDE10A (WO 01/29 199, FIG. 1A) is expressed recombinantly in full length in Sf9 insect cells (Invitrogen, Carlsbad, Calif.) with the aid of the Bac-to-Bac™ Baculovirus expression system of Life Technologies (Gaithersburg, Md.). 48 h after the infection, the cells are harvested and suspended in 20 ml (per 1 l of culture) of lysis buffer (50 mM tris HCl, pH 7.4, 50 mM NaCl, 1 mM MgCl2, 1.5 mM EDTA, 10% glycerol plus 20 μl of Protease Inhibitor Cocktail Set III [CalBiochem, La Jolla, Calif. USA]). The cells are treated at 4° C. for 1 minute with ultrasound and subsequently centrifuged at 10000 rpm for 30 minutes at 4° C. The supernatant (PDE10A preparation) was collected and stored at −20° C.
The test substances are dissolved and serially diluted in 100% DMSO for the determination of their in vitro action on PDE 10A. Typically, dilution series of 200 μM to 1.6 μM are prepared (resulting final concentrations in the test: 4 μM to 0.032 μM). In each case, 2 μl of the diluted substance solutions are introduced into the wells of microtitre plates (Isoplate; Wallac Inc., Atlanta, Ga.). 50 μl of a dilution of the PDE10A preparation described above are subsequently added. The dilution of the PDE10A preparation is chosen such that during the later incubation less than 70% of the substrate is reacted (typical dilution: 1:10000; dilution buffer: 50 mM tris/HCl pH 7.5, 8.3 mM MgCl2, 1.7 mM EDTA, 0.2% BSA). The substrate, [5′,8-^3H] adenosine 3′, 5′-cyclic phosphate (1 μCi/μl; Amersham Pharmacia Biotech., Piscataway, N.J.) is diluted 1:2000 to a concentration of 0.0005 μCi/μl with assay buffer (50 mM tris/HCl pH 7.5, 8.3 mM MgCl2, 1.7 mM EDTA). The enzyme reaction is finally started by addition of 50 μl (0.025 μCi) of the diluted substrate. The test batches are incubated at room temperature for 60 min and the reaction is stopped by addition of 25 μl of a suspension containing 18 mg/ml of Yttrium Scintillation Proximity Beads (Amersham Pharmacia Biotech., Piscataway, N.J.). The microtitre plates are sealed using a film and allowed to stand at room temperature for 60 min. The plates are subsequently measured for 30 s per well in a Microbeta scintillation counter (Wallac Inc., Atlanta, Ga.). IC50 values are determined with the aid of graphic plotting of the substance concentration against the percentage inhibition.

| SMILES | IC50 [1] | melting point |
| --- | --- | --- |
| COc1cc(Nc2nc(-c3ccc(Br)cc3)nn3c(C)nc(C)c23)cc(OC)c1OC [Example 48, N-[2-(4-Bromophenyl)-5,7-dimethylimidazo[5,1-f][1,2,4]triazin-4-yl]-N-(3,4,5-trimethoxyphenyl)amine] | 68 nM | 219 to 220 °C |
| COc1cc(Nc2nc(-c3ccc(C)cc3)nn3c(C)nc(C)c23)cc(OC)c1OC [Example 53, N-[5,7-Dimethyl-2-(4-methylphenyl)imidazo[5,1-f][1,2,4]triazin-4-yl]-N-(3,4,5-trimethoxyphenyl)amine] | 45 nM | 212 to 214 °C |
| COc1ccc(Nc2nc(-c3ccc(OC)c(OC)c3)nn3c(C4CCCC4)nc(C)c23)c(OC)c1 [Example 18, N-[7-Cyclopentyl-2-(3,4-dimethoxyphenyl)-5-methylimidazo[5,1-f][1,2,4]triazin-4-yl]-N-(2,4-dimethoxyphenyl)amine] | 91 nM | 244 °C |
| COc1ccc(-c2nc(SCc3cccnc3)c3c(C)nc(C4CCCC4)n3n2)cc1OC [Example 12, 7-Cyclopentyl-2-(3,4-dimethoxyphenyl)-5-methyl-4-[(3-pyridinylmethyl)sulphanyl]-imidazo[5,1-f][1,2,4]triazine] | 460 nM | – |
| COc1ccc(-c2nc(Nc3cc(OC)c(OC)c(OC)c3)c3c(C)nc(C4CCCC4)n3n2)cc1S(=O)(=O)N1CCOCC1 [Example 24, 7-Cyclopentyl-2-[4-methoxy-3-(4-morpholinylsulphonyl)phenyl]-5-methyl-N-(3,4,5-trimethoxyphenyl)imidazo[5,1-f][1,2,4]triazin-4-amine] | 13 nM | – |
